A short description of data set [1]: Solubility by lypophlisation solubility assay. In kind it is physicochemical.
In data set [2] the target is GABA-A receptor; alpha-5/beta-3/gamma-2 (Homo sapiens) (UniProt P18507+P28472+P31644). Kind of data set: Inverse agonist activity at human GABA alpha-5-beta-3-gamma-2 receptor expressed in Xenopus laevis oocyts by electrophysiology assay relative to GABA. In kind it is functional.
Data set [3] deals with GABA A receptor alpha-2/beta-2/gamma-2 (Rattus norvegicus) (UniProt P18508+P23576+P63138). Kind of data set: Inverse agonist activity at rat GABA alpha-2-beta-3-gamma-2 receptor expressed in HEK293 cells by electrophysiology assay relative to GABA. In kind it is functional, cell-based.
The target of data set [4] is Gamma-aminobutyric acid receptor subunit alpha-3 (Rattus norvegicus) (UniProt P20236). Kind of data set: Inverse agonist activity at rat GABA alpha-3-beta-3-gamma-2 receptor expressed in HEK293 cells by electrophysiology assay relative to GABA. In kind it is functional, cell-based.
Data set [5] addresses T1, GABA-A receptor; alpha-3/beta-3/gamma-2 (Homo sapiens, UniProt P18507+P28472+P34903).
T1 sequence (P18507 whole entry): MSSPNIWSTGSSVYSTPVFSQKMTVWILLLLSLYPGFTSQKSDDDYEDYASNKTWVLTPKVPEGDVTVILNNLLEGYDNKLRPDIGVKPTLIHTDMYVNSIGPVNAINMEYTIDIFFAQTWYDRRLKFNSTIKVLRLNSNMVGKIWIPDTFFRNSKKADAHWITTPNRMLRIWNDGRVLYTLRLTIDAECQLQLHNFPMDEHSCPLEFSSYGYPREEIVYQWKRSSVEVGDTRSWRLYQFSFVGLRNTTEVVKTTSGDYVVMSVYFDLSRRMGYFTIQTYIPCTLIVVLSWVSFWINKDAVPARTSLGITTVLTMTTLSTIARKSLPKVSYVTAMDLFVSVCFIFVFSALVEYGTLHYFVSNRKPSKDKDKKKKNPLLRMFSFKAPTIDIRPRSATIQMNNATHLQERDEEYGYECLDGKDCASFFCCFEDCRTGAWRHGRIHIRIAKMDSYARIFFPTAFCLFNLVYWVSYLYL
T1 sequence (P28472 whole entry): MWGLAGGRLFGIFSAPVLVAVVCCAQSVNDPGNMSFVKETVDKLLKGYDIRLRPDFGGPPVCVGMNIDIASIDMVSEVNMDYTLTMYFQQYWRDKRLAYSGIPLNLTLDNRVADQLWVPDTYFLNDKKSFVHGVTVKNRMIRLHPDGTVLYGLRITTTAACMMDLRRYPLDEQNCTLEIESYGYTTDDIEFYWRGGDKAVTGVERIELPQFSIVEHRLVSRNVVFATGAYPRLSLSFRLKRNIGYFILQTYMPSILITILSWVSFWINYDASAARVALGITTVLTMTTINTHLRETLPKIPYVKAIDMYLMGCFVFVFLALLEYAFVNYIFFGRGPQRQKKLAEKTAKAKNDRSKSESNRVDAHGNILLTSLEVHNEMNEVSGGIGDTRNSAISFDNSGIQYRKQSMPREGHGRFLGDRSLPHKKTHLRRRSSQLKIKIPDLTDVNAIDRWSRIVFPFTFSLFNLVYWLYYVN
T1 sequence (P34903 whole entry): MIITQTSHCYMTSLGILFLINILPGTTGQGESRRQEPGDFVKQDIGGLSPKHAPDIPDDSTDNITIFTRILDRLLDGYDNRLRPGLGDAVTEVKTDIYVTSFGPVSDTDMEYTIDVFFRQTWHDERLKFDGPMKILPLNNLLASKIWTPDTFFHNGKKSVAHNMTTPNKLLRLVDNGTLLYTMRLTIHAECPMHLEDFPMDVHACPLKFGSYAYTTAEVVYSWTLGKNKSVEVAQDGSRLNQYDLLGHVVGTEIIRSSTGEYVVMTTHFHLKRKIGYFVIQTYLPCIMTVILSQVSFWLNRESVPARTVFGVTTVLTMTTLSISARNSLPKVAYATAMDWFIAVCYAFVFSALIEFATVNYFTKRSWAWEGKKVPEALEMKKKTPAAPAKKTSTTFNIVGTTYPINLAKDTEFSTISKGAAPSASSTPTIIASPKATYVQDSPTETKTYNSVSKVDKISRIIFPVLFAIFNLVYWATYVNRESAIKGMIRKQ
In words: Displacement of [3H]Flumazenil from cloned human GABA alpha-3-beta-3-gamma-2 receptor expressed in HEK293 cells. Type of data set: cell-based. (In general: In a radioligand displacement assay an active substance lowers the binding of a labelled ligand.)

For data set [6], the system named is Rattus norvegicus. Kind of data set: Behavioral effect in Lister hooded rat assessed as reversal of scopolamine-induced working memory impairment at 1 mg/kg, po after 24 seconds by delayed match to position task method. Also noted: dose 1 mg/kg. In kind it is functional, organism-based.
In data set [7] the test system is HEK293. Kind of data set: Selectivity ratio of Ki for cloned human GABA alpha-2-beta-3-gamma-2 receptor expressed in HEK293 cells to Ki for cloned human GABA alpha-5-beta-3-gamma-2 receptor expressed in HEK293 cells. In kind it is cell-based.
In data set [8] the test system is HEK293. Kind of data set: Selectivity ratio of Ki for cloned human GABA alpha-1-beta-3-gamma-2 receptor expressed in HEK293 cells to Ki for cloned human GABA alpha-5-beta-3-gamma-2 receptor expressed in HEK293 cells. Type of data set: cell-based.
The subject of data set [9] is Rattus norvegicus. Kind of data set: Behavioral effect in Lister hooded rat assessed as reversal of scopolamine-induced working memory impairment at 1 mg/kg, po by delayed match to position task method. In kind it is functional, organism-based. The arrangement: dose 1 mg/kg.
The test system of data set [10] is Rattus norvegicus. Kind of data set: Behavioral effect in Lister hooded rat assessed as reversal of scopolamine-induced working memory impairment at 1 mg/kg, po after 16 seconds by delayed match to position task method. Type of data set: functional, organism-based. Also noted: dose 1 mg/kg.
The subject of data set [11] is Rattus norvegicus. Kind of data set: Behavioral effect in Lister hooded rat assessed as reversal of scopolamine-induced working memory impairment at 0.1 mg/kg, po after 24 seconds by delayed match to position task method. Type of data set: functional, organism-based. The arrangement: dose 0.1 mg/kg.
For data set [12], the species on record is Rattus norvegicus. Kind of data set: Anxiogenic activity in Lister hooded rat by elevated plus maze test. Type of data set: functional, organism-based.
For data set [13], the species on record is Rattus norvegicus. In words: Anxiogenic activity in Lister hooded rat by social approach avoidance test. In kind it is functional, organism-based.
Data set [14] has as its system Rattus norvegicus. Kind of data set: Behavioral effect in Lister hooded rat assessed as inhibition of diazepam-induced spartial learning impairment at 1 to 10 mg/kg, po by delayed match to position task method. In kind it is functional, organism-based.
The species named for a further data set is Mus musculus. In words: Anticonvulsive activity in mouse audiogenic seizure model. In kind it is functional, organism-based.
For data set [15], the system named is Rattus norvegicus. Kind of data set: Behavioral effect in Lister hooded rat assessed as reversal of scopolamine-induced working memory impairment at 0.3 to 1 mg/kg, po by delayed match to position task method. Type of data set: functional, organism-based.
The test system of a further data set is Cynomolgus monkey. In words: Behavioral effect in cynomolgus monkey assessed as improved executive function at 3 to10 mg/kg, po by object retrieval task method. To be noted: Macaca fascicularis. Type of data set: functional, organism-based.

The values that follow come from ChEMBL document CHEMBL1154288, “The discovery and unique pharmacological profile of RO4938581 and RO4882224 as potent and selective GABAA alpha5 inverse agonists for the treatment of cognitive dysfunction” (Bioorg Med Chem Lett, 2009).

Values after ≈ are worked out from the molar mass of the structure shown. Active and inactive are the calls of the source. No cut-off for these calls is given here.

Gamma-aminobutyric acid receptor subunit alpha-3 (Rattus norvegicus), sequence (P20236 whole entry): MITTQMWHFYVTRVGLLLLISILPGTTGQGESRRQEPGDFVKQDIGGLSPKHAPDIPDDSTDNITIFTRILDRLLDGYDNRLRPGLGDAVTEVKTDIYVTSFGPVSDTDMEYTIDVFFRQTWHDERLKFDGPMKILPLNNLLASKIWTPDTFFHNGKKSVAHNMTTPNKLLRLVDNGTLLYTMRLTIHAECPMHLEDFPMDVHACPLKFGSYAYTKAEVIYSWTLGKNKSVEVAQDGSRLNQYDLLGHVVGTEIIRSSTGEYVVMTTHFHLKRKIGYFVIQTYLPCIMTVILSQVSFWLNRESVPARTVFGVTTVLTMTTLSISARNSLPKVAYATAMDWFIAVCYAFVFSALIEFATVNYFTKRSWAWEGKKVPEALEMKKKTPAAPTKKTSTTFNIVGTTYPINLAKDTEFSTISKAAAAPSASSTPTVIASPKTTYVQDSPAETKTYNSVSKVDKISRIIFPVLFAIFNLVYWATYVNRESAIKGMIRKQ

Molecule `Clc1ccc2c(c1)-c1ncnn1Cc1c(Cl)ncn1-2` had a solubility in data set [1] of 27 µg/mL (≈ 92.4 µM). The result (in data set [2]; in the data set with Rattus norvegicus [6]; in the data set with Rattus norvegicus [10]) was Active. The Efficacy in [3] is -9%; in data set [4], -11%. Moreover, the Ki in data set [5] is 0.014 µM. Also, the Ratio Ki turned out to be 12 with HEK293 [7] and 7 in the data set on HEK293 [8]. The result in the data set with Rattus norvegicus [9] was inactive.
Take `FC(F)c1ncn2c1Cn1ncnc1-c1cc(Br)ccc1-2`: the outcome in the data set on Rattus norvegicus [11], in the data set with Rattus norvegicus [14], in the data set with Rattus norvegicus [15] and in the data set with Cynomolgus monkey was Active. Further, the result in the data set filed under Rattus norvegicus [12], in the data set filed under Rattus norvegicus [13] and in the data set listed under Mus musculus was inactive. In addition, the solubility in [1] was found to be 19 µg/mL (≈ 54 µM). The Efficacy is -4% in data set [3] and 2% in [4]. In data set [5], this molecule came in with a Ki of 0.08 µM.
Regarding `Cc1ncn2c1Cn1ncnc1-c1cc(Cl)ccc1-2`, the concentration in solution in [1] (solubility) was 13 µg/mL (≈ 47.8 µM). The Efficacy was -2% in [3] and 4% in data set [4]. The affinity in [5] corresponds to a Ki of 0.265 µM. Besides, the Ratio Ki was determined as 72 in the data set with HEK293 [7] and 6 with HEK293 [8].
For the molecule `Clc1ncn2c1Cn1ncnc1-c1cc(Br)ccc1-2`, the concentration in solution in data set [1] (solubility) came to 9 µg/mL (≈ 26.7 µM). In addition, the Efficacy in data set [3] is -25%; in data set [4], -14%. This molecule also had a Ki in data set [5] of 0.0088 µM. In addition, the values for the Ratio Ki with HEK293 [7] and in the data set with HEK293 [8] were 18 and 24, respectively.

As usually defined, the solubility is the concentration that dissolves in the medium under given conditions. Broadly, the Ki is the dissociation constant of the complex between target and ligand, obtained from inhibition or displacement.
